The text below walks through data of ChEMBL document CHEMBL1130475 (Bioorg Med Chem Lett, 1997).

The nature of assay [1]: Ability to promote neurite outgrowth against freshly isolated sensory neuronal cultures. The following applies: Gallus gallus; read-out: ED50 (the source's name). The class given is functional.
Another assay addresses FK506 binding protein 12 (Gallus gallus, UniProt Q8QGU2). Description: Inhibition of binding to FKBP12 receptor.
Assay [2] can be described thus: Tested for its ability to inhibit calcineurin phosphatase activity in standard in vitro assay; NI means no inhibition at >10 uM. The class given is functional.
For another assay, the system named is T-cell. Description: Tested for its ability to block T-cell proliferation in standard in vitro assay; NI means no inhibition at >10 uM. The class given is functional, cell-based.

FK506 binding protein 12, sequence (Q8QGU2 whole entry): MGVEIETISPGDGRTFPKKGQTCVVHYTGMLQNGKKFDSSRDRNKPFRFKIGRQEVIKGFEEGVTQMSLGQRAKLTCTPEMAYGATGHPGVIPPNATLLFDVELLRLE

With `CCC(C)(C)C(=O)C(=O)N1CCCCC1C(=O)OC(CCc1ccccc1)CCc1ccccc1` (configuration not stated), the EC50 in assay [1] is 0.016 nM.

`CC(C)(C)C(=O)C(=O)N1CCCCC1C(=O)OC(CCCc1ccccc1)CCCc1ccccc1` (configuration not stated): the EC50 in assay [1] was found to be 0.085 nM.

One may read the Ki as the dissociation constant of the complex between target and ligand, obtained from inhibition or displacement. A high value points to a looser hold on the target. In the case of `O=C(C(=O)N1CCCCC1C(=O)OC(CCCc1ccccc1)CCCc1ccccc1)c1ccccc1` (configuration not stated), the affinity at FK506 binding protein 12, expressed as Ki, was 3 nM. Also, the EC50 in assay [1] was found to be 0.15 nM.

Take `CC(C)(C)C(=O)C(=O)N1CCCCC1C(=O)OCCCc1ccccc1` (configuration not stated): the EC50 in assay [1] stood at 0.085 nM.

On FK506 binding protein 12, `CCC(C)(C)C(=O)C(=O)N1CCCCC1C(=O)OCCCc1ccccc1` (configuration not stated) returned a Ki of 250 nM. Moreover, the Activity entry (in assay [2]; in the assay on T-cell) was “No inhibition” in each case. In assay [1], the EC50 turned out to be 300 nM.

Consider `COc1ccc(CCCCOC(=O)C2CCCCN2C(=O)C(=O)C(C)(C)C)cc1` (configuration not stated), for which the inhibition constant Ki at FK506 binding protein 12 turned out to be 24 nM. Moreover, the EC50 in assay [1] was 0.002 nM.

`CCC(C)(C)C(=O)C(=O)N1CCCCC1C(=O)OCCCc1cc(OC)c(OC)c(OC)c1` (configuration not stated) yielded a Ki at FK506 binding protein 12 of 25 nM. For the same compound, the Activity result (in assay [2]; in the assay with T-cell) was “No inhibition” in each case. In assay [1], the EC50 came to 80 nM.

With `CCOC(=O)C1CCCCN1C(=O)C(=O)OC` (configuration not stated), the Ki on FK506 binding protein 12 was over 10000 nM. Moreover, the EC50 in assay [1] is over 10000 nM.

The compound `CCC(C)(C)C(=O)C(=O)N1CCCCC1C(=O)OCCCCc1ccc(OC)cc1` (configuration not stated) gave a Ki at FK506 binding protein 12 of 60 nM. Moreover, the EC50 in assay [1] came out at 43 nM.

The compound `CCOC(=O)C1CCCCN1C(=O)C(=O)C(C)(C)CC` (configuration not stated) displayed a Ki on FK506 binding protein 12 of 1300 nM. Moreover, the EC50 in assay [1] stood at 5000 nM.

As to `CCC(C)(C)C(=O)C(=O)N1CCCCC1C(=O)OC(CCCc1ccccc1)CCc1ccc(OC)cc1` (configuration not stated), the inhibition constant Ki on FK506 binding protein 12 amounted to 15 nM. Moreover, the EC50 in assay [1] was found to be 0.17 nM.

`CCC(C)(C)C(=O)C(=O)N1CCCCC1C(=O)OCCC(c1ccccc1)c1ccccc1` (configuration not stated) returned a Ki at FK506 binding protein 12 of 8.3 nM. Further, the EC50 in assay [1] was 0.029 nM.

Turning to `COc1cc(C(=O)C(=O)N2CCCCC2C(=O)OC(CCCc2ccccc2)CCCc2ccccc2)cc(OC)c1OC` (configuration not stated), the EC50 in assay [1] was found to be 0.61 nM.

`CCC(C)(C)C(=O)C(=O)N1CCCCC1C(=O)OC(CCCc1ccccc1)CCCc1ccccc1` (configuration not stated): the EC50 in assay [1] was found to be 5 nM.
